Experimental data published in US20240262806A1, “INHIBITORS OF NLRP3” (PTC THERAPEUTICS, INC., priority 2021, published 2024).

Tested on: NLRP3 inflammasome
Assay: IL-1β Secretion Assay (NLRP3-dependent IL-1β secretion in PMA-differentiated THP-1 cells, nigericin activation, HTRF)
Assay type: cell-based
Conditions: Homo sapiens, THP-1, THP-1 cells, 100 ng/mL PMA 24 h, compound 20 h, 2.5 μM Nigericin 3 h; read-out: IC50 IL-1β Inhibition
In short: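 PMA-differentiated THP-1 cells in RPMI with 5% FBS were treated with compounds at 7 concentrations in threefold DMSO dilutions. NLRP3 was activated with nigericin and secreted IL-1β measured by HTRF. IC50 from a logistic fit of percent inhibition versus concentration.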

SMILES | IC50
C[C@]1(O)C[C@@H](Nc2nnc(-c3ccc(C(F)(F)F)cc3O)c3cccn23)C1 [Compound I-406] | 1 to 10 nM
Oc1cc(C(F)(F)F)ccc1-c1nnc(N[C@H]2CCCOC2)c2cnccc12 [Compound I-310] | 1 to 10 nM
C[C@]1(O)C[C@@H](Nc2nnc(-c3ccc(Cl)cc3O)c3cncn23)C1 [Compound I-549] | 1 to 10 nM
CN1CCC[C@@H](Nc2nnc(-c3ccc(C(F)(F)F)cc3OC3COC3)c3cnccc23)C1 [Compound I-188] | 10 to 100 nM
OCCN1CCC[C@@H](Nc2nnc(-c3ccc(C4CC4)cc3C(F)F)c3cccn23)C1 [Compound I-509] | 1 to 10 nM
CCN1C[C@H](O)C[C@@H](Nc2nnc(-c3ccc(C(F)(F)F)cc3OC(F)F)c3c(F)ccn23)C1 [Compound I-603] | 100 to 300 nM
OCCN1CCC[C@@H](Nc2nnc(-c3c(O)cc(C4CC4)cc3F)c3cccn23)C1 [Compound I-379] | 1 to 10 nM
CN1CCC[C@H](Nc2nnc(-c3ccc(-c4ncco4)cc3O)c3ccncc23)C1 [Compound I-176] | 1 to 10 nM
Cc1ccc(-c2nnc(N[C@@H]3CCCN(C)C3)c3cnccc23)c(C(F)(F)F)c1 [Compound I-298] | 1 to 10 nM
CN1C[C@H](O)C[C@@H](Nc2nnc(-c3ccc(C(F)(F)F)cc3O)c3ccccc23)C1 [Compound I-84] | 10 to 100 nM
COc1cc(Cl)ccc1-c1nnc(N[C@@H]2CCCN(C)C2)n2cncc12 [Compound I-383] | 1 to 10 nM
Cc1ccc(-c2nnc(N[C@@H]3CCCN(CCO)C3)n3cccc23)c(O)c1 [Compound I-354] | < 1 nM
CN1CCC[C@@H](Nc2nnc(-c3ccc(C(F)(F)F)nc3O)c3ccccc23)C1 [Compound I-75] | 10 to 100 nM
Cc1cc2c(-c3c(O)cc(C(F)(F)F)cc3F)nnc(N[C@@H]3CCCN(C)C3)n2n1 [Compound I-363] | < 1 nM
CN1CCC[C@@H](Nc2nnc(-c3ccc(C(F)(F)F)cc3C(N)=O)c3ccncc23)C1 [Compound I-182] | 10 to 100 nM
CN1CCC[C@@H](Nc2nnc(-c3ccc(Cl)cc3OCC(F)(F)F)c3cccn23)C1 [Compound I-485, (R)-1-(4-Chloro-2-(2,2,2-trifluoroethoxy)phenyl)-N-(1-methylpiperidin-3-yl)pyrrolo[1,2-d][1,2,4]triazin-4-amine] | 10 to 100 nM
CCN1CCC[C@@H](Nc2nnc(-c3c(O)cc(Cl)cc3F)c3cc(C)nn23)C1 [Compound I-579] | < 1 nM
COc1cc(C(F)(F)F)ccc1-c1nnc(N[C@H]2CN3CCC2CC3)c2cnccc12 [Compound I-199] | 10 to 100 nM
CN1CCC[C@@H](Nc2nnc(-c3ccc(C(F)(F)F)cc3O)c3cnn(C)c23)C1 [Compound I-146, 2-[1-Methyl-7-[[(3R)-1-methyl-3-piperidyl]amino]pyrazolo[3,4-d]pyridazin-4-yl]-5-(trifluoromethyl)phenol] | < 1 nM
Cc1cc(O)c(-c2nnc(N[C@@H]3CCCN(C)C3)n3nc(C)cc23)c(F)c1 [Compound I-359] | < 1 nM
Oc1cc(Cl)ccc1-c1nnc(N[C@@H]2CCCN(CC(F)F)C2)n2cccc12 [Compound I-368] | 10 to 100 nM
CN1CCC[C@@H](Nc2nnc(-c3cnc(C(F)(F)F)cc3O)c3ccccc23)C1 [Compound I-79] | 10 to 100 nM
CN1CCC[C@@H](Nc2nnc(-c3ncc(C4CC4)cc3O)c3ccccc23)C1 [Compound I-91, (R)-5-Cyclopropyl-2-(4-((1-methylpiperidin-3-yl)amino)phthalazin-1-yl)pyridin-3-ol] | < 1 nM
Cc1cccc(-c2nnc(N[C@@H]3CCCN(C)C3)c3cnccc23)c1OC(F)F [Compound I-168] | 10 to 100 nM
Cc1cc2c(-c3ccc(C4CC4)cc3O)nnc(N[C@@H]3CCCN(C)C3)n2n1 [Compound I-327] | 1 to 10 nM

SMILES | IC50
CN1C[C@H](F)C[C@@H](Nc2nnc(-c3ccc(Cl)cc3O)c3cncn23)C1 [Compound I-557] | 1 to 10 nM
CN1CCC[C@@H](Nc2nnc(-c3ccc(C4CC4)cc3OC(F)F)c3c2CCC3)C1 [Compound I-246] | 10 to 100 nM
CN1CC[C@H](F)[C@@H](Nc2nnc(-c3ccc(C(F)(F)F)cc3O)c3cccn23)C1 [Compound I-478] | 10 to 100 nM
C[C@@H](O)CNc1nnc(-c2ccc(OC(F)(F)F)cc2O)c2cccn12 [Compound I-437] | 10 to 100 nM
Oc1cc(C(F)(F)F)cc(F)c1-c1nnc(N[C@@H]2CCCN(C3CCOC3)C2)n2cccc12 (stereo partly shown) [Compound I-447] | 1 to 10 nM
CO[C@H]1CCC[C@@H](Nc2nnc(-c3ccc(Cl)cc3O)c3cncn23)C1 [Compound I-581] | 1 to 10 nM
CCN1CCC[C@@H](Nc2nnc(-c3ccc(C)cc3O)c3ccnn23)C1 [Compound I-633] | 1 to 10 nM
CN1CCC[C@@H](Nc2nnc(-c3c(O)cc(C(F)(F)F)cc3C3CC3)c3ccncc23)C1 [Compound I-274, 3-Cyclopropyl-2-[4-[[(3R)-1-methyl-3-piperidyl]amino]pyrido[3,4-d]pyridazin-1-yl]-5-(trifluoromethyl)phenol] | 1 to 10 nM
CN1CCC[C@@H](Nc2nnc(-c3ncc(Cl)cc3O)c3ccncc23)C1 [Compound I-172] | 1 to 10 nM
Oc1cc(C(F)(F)F)ccc1-c1nnc(N[C@@H]2CCCN(CC(F)(F)F)C2)n2cccc12 [Compound I-483] | 100 to 300 nM
COCOc1cc(-c2ncco2)ccc1-c1nnc(N[C@H]2CCCN(C)C2)c2cnccc12 [Compound I-173] | 10 to 100 nM
Cc1ccc(-c2nnc(N[C@@H]3CCCN(C)C3)c3ncccc23)c(O)c1 [Compound I-86] | < 1 nM
CCN1C[C@H](F)C[C@@H](Nc2nnc(-c3ccc(C(F)(F)F)cc3C(F)(F)F)c3cccn23)C1 [Compound I-535] | 1 to 10 nM
Cc1cc(C(F)(F)F)cc(O)c1-c1nnc(N[C@@H]2CCCN(C)C2)c2cnccc12 [Compound I-103] | < 1 nM
Cc1cc(Cl)cc(C)c1-c1nnc(N[C@@H]2CCCN(C)C2)c2cnccc12 [Compound I-218] | < 1 nM
Cc1cc(O)c(-c2nnc(N[C@@H]3CCCN(C)C3)c3ncccc23)c(F)c1 [Compound I-304] | < 1 nM
FC(F)Oc1cc(C(F)(F)F)ccc1-c1nnc(N[C@@H]2CCOC2)n2cccc12 [Compound I-388] | 1 to 10 nM
CN1CCC[C@H](Nc2nnc(-c3c(O)cccc3Cl)c3ccncc23)C1 [Compound I-139] | 1 to 10 nM
Oc1cc(C(F)(F)F)ccc1-c1nnc(N[C@@H]2CC[C@@H](O)C2)n2cccc12 [Compound I-449] | 10 to 100 nM
O[C@H]1CCC[C@@H](Nc2nnc(-c3ccc(C(F)(F)F)cc3OC(F)F)c3c(F)ccn23)C1 [Compound I-524] | 10 to 100 nM
CN1CCC[C@@H](Nc2nnc(-c3ccc(Br)cc3O)c3cccn23)C1 [Compound I-484, (R)-5-Bromo-2-(4-((1-methylpiperidin-3-yl)amino)pyrrolo[1,2-d][1,2,4]triazin-1-yl)phenol] | 1 to 10 nM
CC(C)N1CCC[C@@H](Nc2nnc(-c3ccc(C(F)(F)F)cc3OC(F)F)c3cccn23)C1 [Compound I-493] | 1 to 10 nM
CN1CCC[C@@H](Nc2nnc(-c3ccc(C(F)(F)F)cc3CC(F)(F)F)c3ccncc23)C1 [Compound I-214, (R)—N-(1-Methylpiperidin-3-yl)-1-(2-(2,2,2-trifluoroethyl)-4-(trifluoromethyl)-phenyl)pyrido[3,4-d]pyridazin-4-amine] | < 1 nM
Cc1cc(O)c(-c2nnc(NC[C@@H](C)O)n3cccc23)c(F)c1 [Compound I-499] | 10 to 100 nM
